System: HCV (Ib) RNA replication
Test: Cell-based luciferase reporter HCV (1b) RNA replication assay (replicon cell lines Huh-7 5.2 and ET)
Set-up: species or system Hepatitis C virus
Conditions: Hepatitis C virus, Huh-7, 96 h, HCV 1b genotype replicon, luciferase readout, 4 days incubation; read-out: EC50_1b
Procedure, shortened: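 Huh-7-derived 5.2 or ET replicon cells carrying a firefly luciferase reporter were seeded at ~3000 cells/well in medium without G418 or phenol red. Compound was added after 3-4 h, followed by 4 days at 37 °C. Luciferase readout was used, with IC50 fitted by nonlinear regression from eleven concentrations in duplicate.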

| SMILES | EC50 |
| --- | --- |
| CC(=O)N[C@H](C(=O)N1CCC[C@H]1c1nc2cc(C#Cc3ccc4[nH]c([C@@H]5CCCN5C(=O)[C@H](NC(C)=O)C(C)C)nc4c3)ccc2[nH]1)C(C)C [Compound 97] | 5 to 5000 nM |
| CC(=O)N[C@@H](C(=O)N1CCC[C@@H]1c1nc2cc(C#Cc3ccc4[nH]c([C@H]5CCCN5C(=O)[C@H](NC(C)=O)C(C)C)nc4c3)ccc2[nH]1)C(C)C [Compound 98] | 5 to 5000 nM |
| O=C([C@H]1C[C@@H](O)CN1)N1CCC[C@H]1c1nc2cc(C#Cc3ccc4[nH]c([C@@H]5CCCN5C(=O)[C@H]5C[C@@H](O)CN5)nc4c3)ccc2[nH]1 [Compound 99] | 5 to 5000 nM |
| O=C([C@H]1C[C@H](O)CN1)N1CCC[C@H]1c1nc2cc(C#Cc3ccc4[nH]c([C@@H]5CCCN5C(=O)[C@H]5C[C@H](O)CN5)nc4c3)ccc2[nH]1 [Compound 100] | > 5000 nM |
| CC(C)[C@H](NC(=O)O[C@H]1CCOC1)C(=O)N1CCC[C@H]1c1nc2cc(-c3ccc(-c4ccc5[nH]c([C@@H]6CCCN6C(=O)[C@@H](NC(=O)O[C@H]6CCOC6)C(C)C)nc5c4)s3)ccc2[nH]1 [Compound 101] | 5 to 5000 nM |
| COC(=O)N[C@@H](C(=O)N1CC[C@H]1c1nc2cc(C#CC#Cc3ccc4[nH]c([C@@H]5CCN5C(=O)[C@H](NC(=O)OC)C(C)C)nc4c3)ccc2[nH]1)C(C)C [Compound 102] | ≤ 5 nM |
| O=C(CC1CCCCC1)N1CCC[C@H]1c1nc2cc(C#Cc3ccc4[nH]c([C@@H]5CCCN5C(=O)CC5CCCCC5)nc4c3)ccc2[nH]1 [Compound 103] | 5 to 5000 nM |
| CC[C@@H](NC(C)=O)C(=O)N1CCC[C@H]1c1nc2cc(C#Cc3ccc4[nH]c([C@@H]5CCCN5C(=O)[C@@H](CC)NC(C)=O)nc4c3)ccc2[nH]1 [Compound 104] | 5 to 5000 nM |
| COCCCC(=O)N1CCC[C@H]1c1nc2cc(C#Cc3ccc4[nH]c([C@@H]5CCCN5C(=O)CCCOC)nc4c3)ccc2[nH]1 [Compound 105] | 5 to 5000 nM |
| O=C(CC1CCOCC1)N1CCC[C@H]1c1nc2cc(C#Cc3ccc4[nH]c([C@@H]5CCCN5C(=O)CC5CCOCC5)nc4c3)ccc2[nH]1 [Compound 106] | 5 to 5000 nM |
| CCOCCC(=O)N1CCC[C@H]1c1nc2cc(C#Cc3ccc4[nH]c([C@@H]5CCCN5C(=O)CCOCC)nc4c3)ccc2[nH]1 [Compound 107] | 5 to 5000 nM |
| O=C(CC1CC1)N1CCC[C@H]1c1nc2cc(C#Cc3ccc4[nH]c([C@@H]5CCCN5C(=O)CC5CC5)nc4c3)ccc2[nH]1 [Compound 108] | 5 to 5000 nM |
| CCC[C@H](NC(C)=O)C(=O)N1CCC[C@H]1c1nc2cc(C#Cc3ccc4[nH]c([C@@H]5CCCN5C(=O)[C@H](CCC)NC(C)=O)nc4c3)ccc2[nH]1 [Compound 109] | 5 to 5000 nM |
| CC(=O)NC1(C(=O)N2CCC[C@H]2c2nc3cc(C#Cc4ccc5[nH]c([C@@H]6CCCN6C(=O)C6(NC(C)=O)CC6)nc5c4)ccc3[nH]2)CC1 [Compound 110] | > 5000 nM |
| CC[C@H](NC(C)=O)C(=O)N1CCC[C@H]1c1nc2cc(C#Cc3ccc4[nH]c([C@@H]5CCCN5C(=O)[C@H](CC)NC(C)=O)nc4c3)ccc2[nH]1 [Compound 111] | 5 to 5000 nM |
| CC(C)(C)OC(=O)N1CCCC[C@H]1c1nc2cc(-c3ccc(-c4ccc5nc([C@@H]6CCCCN6C(=O)OC(C)(C)C)[nH]c5c4)s3)ccc2[nH]1 [Compound 112] | 5 to 5000 nM |
| CC(C)(C)OC(=O)N[C@H](CC1CCC1)C(=O)N1CCC[C@H]1c1nc2cc(C#Cc3ccc4[nH]c([C@@H]5CCCN5C(=O)[C@@H](CC5CCC5)NC(=O)OC(C)(C)C)nc4c3)ccc2[nH]1 [Compound 113] | ≤ 5 nM |
| CC(C)(C)OC(=O)N1CC(F)(F)C[C@H]1C(=O)N1CCC[C@H]1c1nc2cc(C#Cc3ccc4[nH]c([C@@H]5CCCN5C(=O)[C@@H]5CC(F)(F)CN5C(=O)OC(C)(C)C)nc4c3)ccc2[nH]1 [Compound 114] | 5 to 5000 nM |

| SMILES | EC50 |
| --- | --- |
| COC(=O)N[C@H](C(=O)N1CCC[C@H]1c1nc2cc(C#Cc3ccc4nc([C@@H]5CCCN5C(=O)[C@@H](NC(=O)OC)C5CCCCC5)[nH]c4c3)ccc2[nH]1)C(C)C [Compound 115] | ≤ 5 nM |
| COC(=O)N[C@H](C(=O)N1CCC[C@H]1c1nc2cc(CCc3ccc4[nH]c([C@@H]5CCCN5C(=O)[C@H](NC(=O)OC)C(C)C)nc4c3)ccc2[nH]1)C(C)C [Compound 116] | ≤ 5 nM |
| COC(=O)N[C@H](C(=O)N1CCC[C@H]1c1nc2cc(C#Cc3ccc4nc([C@@H]5CCCN5C(=O)[C@H](C(C)C)N(C)C(=O)OC)[nH]c4c3)ccc2[nH]1)C(C)C [Compound 117] | ≤ 5 nM |
| CC[C@H](NC(=O)OC)C(=O)N1CCC[C@H]1c1nc2cc(C#Cc3ccc4[nH]c([C@@H]5CCCN5C(=O)[C@H](CC)NC(=O)OC)nc4c3)ccc2[nH]1 [Compound 118] | ≤ 5 nM |
| O=C(OCc1ccccc1)N1COC[C@@H]1C(=O)N1CCC[C@H]1c1nc2cc(C#Cc3ccc4[nH]c([C@@H]5CCCN5C(=O)[C@H]5COCN5C(=O)OCc5ccccc5)nc4c3)ccc2[nH]1 [Compound 119] | ≤ 5 nM |
| O=C(C1CCCC1)N1CCCC[C@H]1c1nc2cc(C#CC#Cc3ccc4[nH]c([C@@H]5CCCCN5C(=O)C5CCCC5)nc4c3)ccc2[nH]1 [Compound 120] | > 5000 nM |
| CC(C)(C)OC(=O)NC(CC1CCC1)C(=O)N1CCC[C@H]1c1nc2cc(C#Cc3ccc4[nH]c([C@@H]5CCCN5C(=O)[C@H](CC5CCC5)NC(=O)OC(C)(C)C)nc4c3)ccc2[nH]1 (stereo partly drawn) [Compound 121] | 5 to 5000 nM |
| COC(=O)N[C@H](C(=O)N1CCC[C@H]1c1nc2cc(C#Cc3ccc4nc([C@@H]5CCCN5C(=O)NC(C)C)[nH]c4c3)ccc2[nH]1)C(C)C [Compound 122] | ≤ 5 nM |
| COC(=O)N[C@H](C(=O)N1CCC[C@H]1c1nc2cc(C#Cc3ccc4nc([C@@H]5CCCN5C(=O)NC5CCCCC5)[nH]c4c3)ccc2[nH]1)C(C)C [Compound 123] | 5 to 5000 nM |
| CC(C)(C)CC(=O)N1CCC[C@H]1c1nc2cc(C#Cc3ccc4[nH]c([C@@H]5CCCN5C(=O)CC(C)(C)C)nc4c3)ccc2[nH]1 [Compound 124] | 5 to 5000 nM |
| O=C(CC1CCCC1)N1CCC[C@H]1c1nc2cc(C#Cc3ccc4[nH]c([C@@H]5CCCN5C(=O)CC5CCCC5)nc4c3)ccc2[nH]1 [Compound 125] | 5 to 5000 nM |
| CC(C)(C)OC(=O)NC(C)(C)C(=O)N1CCC[C@H]1c1nc2cc(C#Cc3ccc4[nH]c([C@@H]5CCCN5C(=O)C(C)(C)NC(=O)OC(C)(C)C)nc4c3)ccc2[nH]1 [Compound 128] | 5 to 5000 nM |
| CC(C)(C)OC(=O)N1CC[C@H]1C(=O)N1CCC[C@H]1c1nc2cc(C#Cc3ccc4[nH]c([C@@H]5CCCN5C(=O)[C@@H]5CCN5C(=O)OC(C)(C)C)nc4c3)ccc2[nH]1 [Compound 129] | > 5000 nM |
| CC(C)(C)OC(=O)NC1(C(=O)N2CCC[C@H]2c2nc3cc(C#Cc4ccc5[nH]c([C@@H]6CCCN6C(=O)C6(NC(=O)OC(C)(C)C)CCC6)nc5c4)ccc3[nH]2)CCC1 [Compound 130] | 5 to 5000 nM |
| COC(=O)N[C@H](C(=O)N1CCC[C@H]1c1nc2cc(-c3ccsc3-c3ccc4[nH]c([C@@H]5CCCN5C(=O)[C@@H](NC(=O)OC)C(C)C)nc4c3)ccc2[nH]1)C(C)C [Compound 133] | ≤ 5 nM |
| CC(C)(C)CCN1CCC[C@H]1c1nc2cc(C#Cc3ccc4[nH]c([C@@H]5CCCN5CCC(C)(C)C)nc4c3)ccc2[nH]1 [Compound 134] | 5 to 5000 nM |
| CC(C)CCN1CCC[C@H]1c1nc2cc(C#Cc3ccc4[nH]c([C@@H]5CCCN5CCC(C)C)nc4c3)ccc2[nH]1 [Compound 135] | 5 to 5000 nM |
| C(#Cc1ccc2[nH]c([C@@H]3CCCN3CC3CCCCC3)nc2c1)c1ccc2[nH]c([C@@H]3CCCN3CC3CCCCC3)nc2c1 [Compound 136] | 5 to 5000 nM |

Source: patent US8354419B2, “Benzimidazole analogues for the treatment or prevention of flavivirus infections” (Vertex Pharmaceuticals Incorporated, priority 2009, dated 2013)
